Assay results published in patent publication US8772500B2, “TRPV3 modulators” (AbbVie Inc., priority 2011, dated 2014).

Legend:
human TRPV3 = molecular target: T1, human TRPV3 (Homo sapiens, UniProt Q8NET8); assay: In vitro antagonism of recombinant human TRPV3 activation (FLIPR Tetra calcium assay, 2-APB as agonist); type: cell-based; conditions: HEK293 cells stably expressing human TRPV3; 2-APB 80 μM; range class; read-out: IC50 (reported range)
T1 construct: expressed in transfected cells
T1 sequence (Q8NET8 1-790): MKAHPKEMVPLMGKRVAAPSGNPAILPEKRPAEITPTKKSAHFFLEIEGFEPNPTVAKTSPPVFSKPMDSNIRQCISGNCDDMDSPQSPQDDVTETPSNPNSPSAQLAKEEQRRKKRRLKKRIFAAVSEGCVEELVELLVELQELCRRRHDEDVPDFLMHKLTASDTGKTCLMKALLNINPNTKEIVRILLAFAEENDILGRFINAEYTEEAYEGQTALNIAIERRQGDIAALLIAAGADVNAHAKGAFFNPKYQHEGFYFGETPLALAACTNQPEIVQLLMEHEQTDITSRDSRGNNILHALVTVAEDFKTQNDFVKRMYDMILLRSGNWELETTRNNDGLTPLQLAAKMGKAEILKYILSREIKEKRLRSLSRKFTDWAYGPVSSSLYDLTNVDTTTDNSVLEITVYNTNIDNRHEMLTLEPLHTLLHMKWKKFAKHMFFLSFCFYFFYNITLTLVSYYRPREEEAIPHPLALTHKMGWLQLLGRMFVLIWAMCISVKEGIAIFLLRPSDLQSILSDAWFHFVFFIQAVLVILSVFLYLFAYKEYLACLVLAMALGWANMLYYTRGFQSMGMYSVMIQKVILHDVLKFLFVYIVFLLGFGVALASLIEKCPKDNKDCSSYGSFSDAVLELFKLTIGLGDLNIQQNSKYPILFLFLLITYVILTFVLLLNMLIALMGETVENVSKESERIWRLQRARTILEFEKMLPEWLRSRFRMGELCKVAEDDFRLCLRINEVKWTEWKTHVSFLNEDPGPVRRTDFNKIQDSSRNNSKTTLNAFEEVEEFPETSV
How it was run: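 HEK293 cells stably expressing human TRPV3, loaded with Calcium-4 dye for 90-120 min; compound added 3 min before 2-APB at 80 μM (its EC80). Fluorescence (max minus min) over 10 min expressed as % of maximal 2-APB response without antagonist; IC50 mostly averaged from n≧2 runs.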

[1] = In vitro human microsomal stability assay; type: in vitro ADME; conditions: human, 0.5 h, 0.5 μM, pH 7.4
How it was run: (§1)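 Compounds were incubated at 37 °C with Sprague-Dawley rat liver microsomes (rat assay) or human liver microsomes (human assay) to measure metabolic stability. NADPH was added, including to the time-zero samples.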

[2] = In vitro rat microsomal stability assay; type: in vitro ADME, rat (Sprague-Dawley); conditions: Sprague-Dawley, rat, 0.5 h, 0.5 μM, pH 7.4
How it was run: as §1

Row | SMILES | IC50 (human TRPV3) [nM] | HUMAN MICROSOMAL STABILITY (% REMAINING AFTER 30 MINUTES) [1] [%] | RAT MICROSOMAL STABILITY (% REMAINING AFTER 30 MINUTES) [2] [%]
1 | CC(c1ccc(F)cc1)C1(C(O)c2ccccn2)CCC1 (stereo not drawn) [Example 46, {1-[1-(4-fluorophenyl)ethyl]cyclobutyl}(pyridin-2-yl)methanol] | 5100 to 20000 | 11 | 0.23
2 | Cc1ccc(CC2(C(O)c3ccccn3)CCC2)cc1 (stereo not drawn) [Example 52, [1-(4-methylbenzyl)cyclobutyl](pyridin-2-yl)methanol] | 1100 to 5000 | 1.7 | 0.05
3 | OC(c1ccccn1)C1(C2CCc3ccccc32)CCC1 (stereo not drawn) [Example 55, [1-(2,3-dihydro-1H-inden-1-yl)cyclobutyl](pyridin-2-yl)methanol] | 5100 to 20000 | 1.6 | 0.29
4 | OC(c1ccccn1)C1(C2CCCc3ccccc32)CCC1 (stereo not drawn) [Example 56, pyridin-2-yl[1-(1,2,3,4-tetrahydronaphthalen-1-yl)cyclobutyl]methanol] | 1100 to 5000 | 0.42 | 1.1
5 | OC(c1ccccn1)C1(C(c2ccccc2)C(F)(F)F)CCC1 (stereo not drawn) [Example 58, pyridin-2-yl[1-(2,2,2-trifluoro-1-phenylethyl)cyclobutyl]methanol] | 1100 to 5000 | 36 | 33
6 | OC(c1ccccn1)C1(c2cccc(OC(F)(F)F)c2)CCOCC1 (stereo not drawn) [Example 66, pyridin-2-yl{4-[3-(trifluoromethoxy)phenyl]tetrahydro-2H-pyran-4-yl}-methanol] | 1100 to 5000 | 31 | 23
7 | OC(c1ccccn1)C1(c2ccc(OC(F)(F)F)cc2)CCOCC1 (stereo not drawn) [Example 67, pyridin-2-yl{4-[4-(trifluoromethoxy)phenyl]tetrahydro-2H-pyran-4-yl}-methanol] | 1100 to 5000 | 58 | 47
8 | OC(CC1(c2cccc(C(F)(F)F)c2)CCC1)c1ccccn1 (stereo not drawn) [Example 74, 1-(pyridin-2-yl)-2-{1-[3-(trifluoromethyl)phenyl]cyclobutyl}ethanol] | 50 to 500 | 6.8 | 0.45
9 | OC(CC1(c2ccc(C(F)(F)F)cc2)CCC1)c1ccccn1 (stereo not drawn) [Example 75, 1-(pyridin-2-yl)-2-{1-[4-(trifluoromethyl)phenyl]cyclobutyl}ethanol] | 501 to 1000 | 44 | 0.74
10 | OC(CC1(c2ccc(OC(F)(F)F)cc2)CCC1)c1ccccn1 (stereo not drawn) [Example 76, 1-(pyridin-2-yl)-2-{1-[4-(trifluoromethoxy)phenyl]cyclobutyl}ethanol] | 501 to 1000 | 39 | 0.47
11 | OC(c1ccccn1)C1(c2ccc(Cl)c(Cl)c2)CC(F)(F)C1 (stereo not drawn) [Example 82, [1-(3,4-dichlorophenyl)-3,3-difluorocyclobutyl](pyridin-2-yl)methanol] | 501 to 1000 | 35 | 16
12 | OC(c1ccccn1)C1(c2ccc(C(F)(F)F)cc2)CCCO1 (stereo not drawn) [Example 88, (anti)-pyridin-2-yl{2-[4-(trifluoromethyl)phenyl]tetrahydrofuran-2-yl}-methanol] | 50 to 500 | 38 | 7.0
13 | Cc1ccccc1C1(C(O)c2ccccn2)CCCO1 (stereo not drawn) [Example 90, [2-(2-methylphenyl)tetrahydrofuran-2-yl](pyridin-2-yl)methanol] | 50 to 500 | 35 | <0.01
14 | Cc1cccc(C2(C(O)c3ccccn3)CCCO2)c1 (stereo not drawn) [Example 91, [2-(3-methylphenyl)tetrahydrofuran-2-yl](pyridin-2-yl)methanol] | 50 to 500 | 46 | 1.0

Next, values leading:

Row | IC50 (human TRPV3) [nM] | HUMAN MICROSOMAL STABILITY (% REMAINING AFTER 30 MINUTES) [1] [%] | RAT MICROSOMAL STABILITY (% REMAINING AFTER 30 MINUTES) [2] [%] | SMILES
15 | 1100 to 5000 | 15 | 0.13 | CC(c1ccc(Cl)cc1)C1(C(O)c2ccccn2)CCC1 (stereo not drawn) [Example 49, {1-[1-(4-chlorophenyl)ethyl]cyclobutyl}(pyridin-2-yl)methanol]
16 | 1100 to 5000 | 0.08 | 0.18 | CC(c1ccccc1Cl)C1(C(O)c2ccccn2)CCC1 (stereo not drawn) [Example 50, {1-[1-(2-chlorophenyl)ethyl]cyclobutyl}(pyridin-2-yl)methanol]
17 | 5100 to 20000 | 16 | 10 | OC(c1ccccn1)C1(C2CCOc3ccccc32)CCC1 (stereo not drawn) [Example 57, [1-(3,4-dihydro-2H-chromen-4-yl)cyclobutyl](pyridin-2-yl)methanol]
18 | 1100 to 5000 | 45 | 12 | OC(c1ccccn1)C1(c2ccc(Cl)c(Cl)c2)CCOCC1 (stereo not drawn) [Example 59, [4-(3,4-dichlorophenyl)tetrahydro-2H-pyran-4-yl](pyridin-2-yl)methanol]
19 | 501 to 1000 | 11 | 0.94 | OC(CC1(c2cccc(OC(F)(F)F)c2)CCC1)c1ccccn1 (stereo not drawn) [Example 77, 1-(pyridin-2-yl)-2-{1-[3-(trifluoromethoxy)phenyl]cyclobutyl}ethanol]
20 | 5100 to 20000 | 82 | 76 | OC(c1ccccn1)C1(c2ccc(C(F)(F)F)nc2)CCC1 (stereo not drawn) [Example 85, pyridin-2-yl{1-[6-(trifluoromethyl)pyridin-3-yl]cyclobutyl}methanol]
21 | 1100 to 5000 | 70 | 4.3 | OC(c1ccccn1)C1(c2ccc(C(F)(F)F)cc2)CCCO1 (stereo not drawn) [Example 89, (syn)-pyridin-2-yl{2-[4-(trifluoromethyl)phenyl]tetrahydrofuran-2-yl}-methanol]
